Laboratory results from US20190083459A1, “PHARMACEUTICAL COMPOSITION AND USE THEREOF” (WATERSTONE PHARMACEUTICALS(WUHAN) CO., LTD., priority 2016, published 2019).

Experiments:
[1] = test system: cytochrome p450; details: 14C as a marker; cited from earlier work
[2] = test system: NASH-modeled golden hamsters; test: NASH-modeled golden hamster (method as Example 4, changed doses); assay type: in vivo; details: obeticholic acid 5 mg/kg
Description: The experimental method is referred to the Example 4, except for addition of Ezetimibe group (0.3 mg/kg), dosage change to 5 mg/kg obeticholic acid for the obeticholic acid group, as well as dosage change to 5 mg/kg obeticholic acid and 0.3 mg/kg Ezetimibe for the obeticholic acid+Ezetimibe group. Specifically, a normal group (A), a model group (B), an obeticholic acid group (C), an obeticholic acid+Ezetimibe group (D) and an Ezetimibe group (E) are included in this example.
Liver tissue samples from individual golden hamsters after treatment were subjected to paraffin-sectioning, with results shown in FIG. 3.

[3] = test system: NAFLD-modeled golden hamsters; test: Simple high-fat diet-induced NAFLD-modeled golden hamster; assay type: in vivo; details: obeticholic acid 1 mg/kg, Ezetimibe 1 mg/kg, x ± s; for ALP / ALT / AST / HDL-C / LDL-C / TC / TG: plasma
Description: Obeticholic acid and Ezetimibe each are formulated with 10% Kolliphor HS 15 (BASF, Lot. No. 21466288K0) to a desired concentration.
78 specific pathogen free (SPF) male golden hamsters were provided, each with a body weight (BW) around 70 to 90 g, and commercially available from Beijing Vital River Laboratory Animal Technology Co., Ltd. Animal permit number is SCXK (Jing) 2012-0001.
10 golden hamsters were fed with a base diet as a normal group, while 68 golden hamsters were fed with a high-fat diet formulated with 0.3% cholesterol, 12.5% palm oil and 87.2% base diet upon purchased. All of them had free access to water, and kept in a same light rhythm (day time/night time: 10 h/14 h). After 3 weeks of feed, the golden hamsters were fasted for 14 hours, with free access to water, and then sampled for blood in a volume of 0.8 mL from posterior orbital venous plexus the next day. The blood samples added with sodium heparin for anticoagulation were centrifuged at 5000 r·min^−1 for 10 minutes, and 300 μL of supernatant for each sample was transferred into an assay cup (in volume of microliter grade) of the Sysmex CHEX-180 automatic biochemical analyzer for determination of levels of TC, TG, LDL-C, HDL-C and ALT, with results for screening of the hamsters.
6 out of 10 golden hamsters fed with the base diet were selected as a normal group, while 30 out of 68 golden hamsters fed with the high-fat diet were grouped into 3 experimental groups randomly (i.e. 10 hamsters for each group), respectively named model group, obeticholic acid group (1 mg/kg) and obeticholic acid (1 mg/kg)+Ezetimibe (1 mg/kg) group. From the first administration at PM 4:00 of the day after grouping, the 3 experimental groups were started to be each administered in a dosage of 10 mL·kg^−1, where the model group was administered with 10% Kolliphor in an equal volume. During administration, the normal group was still fed with the base diet, and the 3 experimental groups were fed with the high-fat diet. At 2 weeks of administration, all the golden hamsters were fasted but accessible to water overnight, and anesthetized with ethyl ether on the morning of the next day for collection of blood samples (in a volume of 0.8 mL) from the posterior orbital venous plexus. The blood samples added with sodium heparin for anticoagulation were centrifuged at 5000 r·min^−1 for 10 minutes, and 300 μL of plasma for each sample was transferred into the Sysmex CHEX-180 automatic biochemical analyzer for determination of levels of TC, TG, LDL-C, HDL-C, ALT, AST and ALP. At 4 weeks of administration, plasma of each hamster was collected for determination of levels of TC, TG LDL-C, HDL-C, ALT, AST and ALP. Afterwards, the hamsters were anesthetized with ethyl ether deeply, followed by weighting and laparotomy by an abdominal median incision for observation of size, color and texture of liver. After photographed, the liver was taken out, washed with saline and dried with filter paper, and weighted for calculation of liver index. Subsequently, left lobe of liver was cut out quickly and placed into 10% of neutral buffered formalin for immobilization, followed by preparation of paraffin sections (with HE staining) for observation of change of liver tissue pathology.
The results are represented in x±s, and comparison among groups is performed by t-test.

[4] = patients in an obeticholic acid treatment group; cited from earlier work
[5] = after 4 weeks of administration
[6] = after 2 weeks of administration

Q: For `O=C1[C@H](CC[C@H](O)c2ccc(F)cc2)[C@@H](c2ccc(O)cc2)N1c1ccc(F)cc1` [Ezetimibe], which “metabolism by a primary drug metabolic enzyme (cytochrome p450)” value [1] is on record?
A: The value was “barely metabolized”.

Q: And the ALP level ([2]; Ezetimibe 0.3 mg/kg)?
A: The ALP level was “reduces ALP level slightly”.

Q: And the “fat content in liver cells (pathological sections of liver tissues, FIG. 3)” value ([2]; Ezetimibe 0.3 mg/kg)?
A: The value was “not reducing fat content in liver significantly”.

Q: And the “infiltration and aggregation of inflammatory cells (pathological sections of liver tissues, FIG. 3)” value ([2]; Ezetimibe 0.3 mg/kg)?
A: Its value is “ameliorating”.

Q: And the “level of LDL in plasma” value ([2]; Ezetimibe 0.3 mg/kg)?
A: Its value is “reduces levels of triglyceride, cholesterol, LDL, liver function enzymes in plasma significantly”.

Q: What about the “level of cholesterol in plasma” value ([2]; Ezetimibe 0.3 mg/kg) of the same compound?
A: The value was “reduces levels of triglyceride, cholesterol, LDL, liver function enzymes in plasma significantly”.

Q: What about the “level of triglyceride in plasma” value ([2]; Ezetimibe 0.3 mg/kg) of the same compound?
A: Its value is “reduces levels of triglyceride, cholesterol, LDL, liver function enzymes in plasma significantly”.

Q: What about the “levels of liver function enzymes (alanine aminotransferase and aspartate aminotransferase) in plasma” value ([2]; Ezetimibe 0.3 mg/kg) of the same compound?
A: The value was “reduces levels of triglyceride, cholesterol, LDL, liver function enzymes in plasma significantly”.

Q: For `CC[C@H]1[C@@H](O)[C@@H]2[C@H](CC[C@]3(C)[C@@H]([C@H](C)CCC(=O)O)CC[C@@H]23)[C@@]2(C)CC[C@@H](O)C[C@@H]12` [Obeticholic acid, obeticholic acid], which “liver index (%)” value [3, 5] is on record?
A: The value was 5.15 ± 0.33%.

Q: What about the ALP [3, 6] of the same compound?
A: Its ALP is 190.20 ± 26.30 U · L^−1.

Q: And the ALT [3, 6]?
A: Its ALT is 120.50 ± 41.78^ U · L^−1.

Q: What about the AST [3, 6] of the same compound?
A: The AST was 59.20 ± 14.01 U · L^−1.

Q: And the HDL-C [3, 6]?
A: Its HDL-C is 2.70 ± 0.37 mmol/L.

Q: What about the LDL-C [3, 6] of the same compound?
A: The LDL-C was 7.07 ± 3.22 mmol/L.

Q: What about the TC [3, 6] of the same compound?
A: Its TC is 14.32 ± 3.15^ mmol · L^−1.

Q: What about the TG [3, 6] of the same compound?
A: Its TG is 2.20 ± 0.52 mmol/L.

Q: And the ALP [3, 5]?
A: The ALP was 196.30 ± 18.91 U · L^−1.

Q: And the ALT [3, 5]?
A: The ALT was 165.20 ± 44.90 U · L^−1.

Q: And the AST [3, 5]?
A: Its AST is 80.80 ± 13.13 U · L^−1.

Q: What about the HDL-C [3, 5] of the same compound?
A: Its HDL-C is 3.51 ± 0.71 mmol/L.

Q: What about the LDL-C [3, 5] of the same compound?
A: Its LDL-C is 16.04 ± 13.52 mmol/L.

Q: And the TC [3, 5]?
A: The TC was 22.89 ± 5.91 mmol/L.

Q: What about the TG [3, 5] of the same compound?
A: Its TG is 2.07 ± 0.97 mmol/L.

Q: And the “level of high density lipoprotein compared to a placebo control” value [4]?
A: Its value is “lower”.

Q: And the “level of low density lipoprotein compared to a placebo control” value [4]?
A: The value was “higher”.

Q: And the “level of total cholesterol compared to a placebo control” value [4]?
A: The value was “higher”.

Q: What about the “blocking the progression of liver fibrosis (pathological sections of liver tissues)” value [2] of the same compound?
A: Its value is “no effect”.

Q: And the “infiltration and aggregation of inflammatory cells (pathological sections of liver tissues, FIG. 3)” value ([2]; Ezetimibe 0.3 mg/kg)?
A: Its value is “no effect”.
